Test results: US8962674B2 (Tokyo Institute of Technology, priority 2006, dated 2015)

Compound	melting point
COc1cc(/C=C/C(=O)CC(=O)/C=C/c2ccccc2OC)ccc1O [CU067, (1E,6E)-1-(4-hydroxy-3-methoxyphenyl)-7-(2-methoxyphenyl)hepta-1,6-diene-3,5-dione]	61 to 66 °C
COc1ccc(/C=C/C(=O)CC(=O)/C=C/c2cc3ccccc3n2C)cc1O [CU128, (1E,6E)-1-(3-hydroxy-4-methoxyphenyl)-7-(1-methyl-1H-indol-2-yl)hepta-1,6-diene-3,5-dione]	185 to 193 °C
O=C(/C=C/c1ccc(O)cc1)CC(=O)/C=C/c1cc(Cl)cc(Cl)c1 [CU201, (1E,6E)-1-(3,5-dichlorophenyl)-7-(4-hydroxyphenyl)hepta-1,6-diene-3,5-dione]	165 to 172 °C
O=C(/C=C/c1ccc(O)cc1)CC(=O)/C=C/c1ccccc1-c1cccc2ccccc12 [CU528, (1E,6E)-1-(4-hydroxyphenyl)-7-[2-(naphthalen-1-yl)phenyl]hepta-1,6-diene-3,5-dione]	95 to 101 °C
COc1ccc(/C=C/C(=O)CC(=O)/C=C/c2ccc(O)cc2OC)cc1O [CU086, (1E,6E)-1-(4-hydroxy-2-methoxyphenyl)-7-(3-hydroxy-4-methoxyphenyl)hepta-1,6-diene-3,5-dione]	90 to 95 °C
COc1ccc(/C=C/C(=O)CC(=O)/C=C/c2ccc(O)c(OC)c2)cc1O [CU105, (1E,6E)-1-(3-hydroxy-4-methoxyphenyl)-7-(4-hydroxy-3-methoxyphenyl)hepta-1,6-diene-3,5-dione]	78 to 85 °C
O=C(/C=C/c1ccc(Oc2ccccc2)cc1)CC(=O)/C=C/c1ccc(Oc2ccccc2)cc1 [CU370, (1E,6E)-1,7-bis(4-phenoxyphenyl)hepta-1,6-diene-3,5-dione]	193 to 196 °C
COc1cc(O)ccc1/C=C/C(=O)CC(=O)CCc1ccc(O)cc1 [CU517, (E)-1-(4-hydroxy-2-methoxyphenyl)-7-(4-hydroxyphenyl)hept-1-ene-3,5-dione]	131 to 135 °C
COc1ccc(/C=C/C(=O)CC(=O)/C=C/c2cc(OC)c(O)c(OC)c2)cc1O [CU136, (1E,6E)-1-(4-hydroxy-3,5-dimethoxyphenyl)-7-(3-hydroxy-4-methoxyphenyl)hepta-1,6-diene-3,5-dione]	91 to 95 °C
COc1ccc(/C=C/C(=O)CC(=O)/C=C/c2cc(O)ccc2OC)cc1O [CU179, (1E,6E)-1-(3-hydroxy-4-methoxyphenyl)-7-(5-hydroxy-2-methoxyphenyl)hepta-1,6-diene-3,5-dione]	116 to 120 °C
O=C(/C=C/c1ccc(O)cc1)CC(=O)/C=C/c1ccc2ccccc2c1 [CU149, (1E,6E)-1-(4-hydroxyphenyl)-7-(naphthalen-2-yl)hepta-1,6-diene-3,5-dione]	225 to 230 °C
COc1cc(/C=C/C(=O)CC(=O)/C=C/c2cc3ccccc3n2C)ccc1O [CU147, (1E,6E)-1-(4-hydroxy-3-methoxyphenyl)-7-(1-methyl-1H-indol-2-yl)hepta-1,6-diene-3,5-dione]	167 to 170 °C
COc1ccc(/C=C/C(=O)CC(=O)/C=C/c2ccc(O)cc2)c(O)c1 [CU251, (1E,6E)-1-(2-hydroxy-4-methoxyphenyl)-7-(4-hydroxyphenyl)hepta-1,6-diene-3,5-dione]	137 to 139 °C
COc1ccc(/C=C/C(=O)CC(=O)/C=C/c2ccc(O)c(C)c2)cc1O [CU052, (1E,6E)-1-(3-hydroxy-4-methoxyphenyl)-7-(4-hydroxy-3-methylphenyl)hepta-1,6-diene-3,5-dione]	215 to 218 °C
CS(=O)(=O)c1ccc(/C=C/C(=O)CC(=O)/C=C/c2ccc(O)cc2)cc1 [CU203, (1E,6E)-1-(4-hydroxyphenyl)-7-(4-methanesulfonylphenyl)hepta-1,6-diene-3,5-dione]	221 to 224 °C
CN(C)S(=O)(=O)c1ccccc1/C=C/C(=O)CC(=O)/C=C/c1ccc(O)cc1 [CU480, (1E,6E)-1-[2-(dimethylaminosulfonyl)phenyl]-7-(4-hydroxyphenyl)hepta-1,6-diene-3,5-dione]	86 to 90 °C
CS(=O)(=O)Oc1ccccc1/C=C/C(=O)CC(=O)/C=C/c1ccc(O)cc1 [CU483, (1E,6E)-1-(4-hydroxyphenyl)-7-[2-(methylsulfonyloxy)phenyl]hepta-1,6-diene-3,5-dione]	163 to 167 °C
COc1ccc(/C=C/C(=O)CC(=O)/C=C/c2cc(Cl)cc(Cl)c2O)cc1O [CU276, (1E,6E)-1-(3,5-dichloro-2-hydroxyphenyl)-7-(3-hydroxy-4-methoxyphenyl)hepta-1,6-diene-3,5-dione]	212 to 214 °C
COc1cc(/C=C/C(=O)CC(=O)/C=C/c2cccc(O)c2)ccc1O [CU079, (1E,6E)-1-(4-hydroxy-3-methoxyphenyl)-7-(3-hydroxyphenyl)hepta-1,6-diene-3,5-dione]	74 to 80 °C
CCn1c2ccccc2c2cc(CCC(=O)CC(=O)CCc3ccc(OC)c(O)c3)ccc21 [CU508, 1-(9-ethyl-9H-carbazol-3-yl)-7-(3-hydroxy-4-methoxyphenyl)heptane-3,5-dione]	97 to 100 °C

Compound	melting point
CC(C)(C)OC(=O)N1CCc2ccc(/C=C/C(=O)CC(=O)/C=C/c3ccc(O)cc3)cc21 [CU419, (1E,6E)-1-[1-(tert-butoxycarbonyl)-indolin-6-yl]-7-(4-hydroxyphenyl)hepta-1,6-diene-3,5-dione]	111 to 118 °C
CS(=O)(=O)N1CCN(c2ccccc2/C=C/C(=O)CC(=O)/C=C/c2ccc(O)cc2)CC1 [CU500, (1E,6E)-1-(4-hydroxyphenyl)-7-{2-[4-(methylsulfonyl)piperazin-1-yl]phenyl}hepta-1,6-diene-3,5-dione]	126 to 131 °C
COCOc1c(O)cccc1/C=C/C(=O)CC(=O)/C=C/c1ccc(O)cc1 [CU247, (1E,6E)-1-[3-hydroxy-2-(methoxymethoxy)phenyl]-7-(4-hydroxyphenyl)hepta-1,6-diene-3,5-dione]	158 to 161 °C
COc1cc(O)cc(/C=C/C(=O)CC(=O)/C=C/c2ccc(OC)c(O)c2)c1 [CU182, (1E,6E)-1-(3-hydroxy-4-methoxyphenyl)-7-(3-hydroxy-5-methoxyphenyl)hepta-1,6-diene-3,5-dione]	196 to 200 °C
COc1cccc(OC)c1/C=C/C(=O)CC(=O)/C=C/c1c(OC)cccc1OC [CU390, (1E,6E)-1,7-bis(2,6-dimethoxyphenyl)hepta-1,6-diene-3,5-dione]	180 to 184 °C
COc1ccc2cc(/C=C/C(=O)CC(=O)/C=C/c3ccc(O)cc3)ccc2c1 [CU166, (1E,6E)-1-(4-hydroxyphenyl)-7-(6-methoxynaphthalen-2-yl)hepta-1,6-diene-3,5-dione]	217 to 220 °C
COc1ccccc1/C=C/C(=O)CC(=O)/C=C/c1ccc(O)cc1 [CU066, (1E,6E)-1-(4-hydroxyphenyl)-7-(2-methoxyphenyl)hepta-1,6-diene-3,5-dione]	171 to 178 °C
Nc1ccc(O)cc1/C=C/C(=O)CC(=O)/C=C/c1ccc(O)cc1 [CU488, (1E,6E)-1-(2-amino-5-hydroxyphenyl)-7-(4-hydroxyphenyl)hepta-1,6-diene-3,5-dione]	186 to 192 °C
CCN(CC)c1ccc(/C=C/C(=O)CC(=O)/C=C/c2ccc(O)cc2)c(OCC=C(C)C)c1 [CU426, (1E,6E)-1-(4-diethylamino-2-prenyloxyphenyl)-7-(4-hydroxyphenyl)hepta-1,6-diene-3,5-dione]	69 to 76 °C
COc1cc(/C=C/C(=O)CC(=O)/C=C/c2ccc(SC)cc2)ccc1O [CU012, (1E,6E)-1-(4-hydroxy-3-methoxyphenyl)-7-(4-methylthiophenyl)hepta-1,6-diene-3,5-dione]	147 to 149 °C
O=C(/C=C/c1ccc(O)cc1)CC(=O)/C=C/c1cn(Cc2ccccc2)c2ccccc12 [CU331, (1E,6E)-1-(1-benzyl-1H-indol-3-yl)-7-(4-hydroxyphenyl)hepta-1,6-diene-3,5-dione]	243 to 249 °C
COc1cc(/C=C/C(=O)CC(=O)/C=C/c2ccc(Cl)c(Cl)c2)ccc1O [CU046, (1E,6E)-1-(3,4-dichlorophenyl)-7-(4-hydroxy-3-methoxyphenyl)hepta-1,6-diene-3,5-dione]	70 to 76 °C
O=C(/C=C/c1ccc(O)cc1)CC(=O)/C=C/c1ccc(O)c(Cl)c1 [CU042, (1E,6E)-1-(3-chloro-4-hydroxyphenyl)-7-(4-hydroxyphenyl)hepta-1,6-diene-3,5-dione]	184 to 190 °C
COc1cc(/C=C/C(=O)CC(=O)/C=C/c2cccc(OC)c2OC)ccc1O [CU070, (1E,6E)-1-(2,3-dimethoxyphenyl)-7-(4-hydroxy-3-methoxyphenyl)hepta-1,6-diene-3,5-dione]	57 to 65 °C
COc1ccc(/C=C/C(=O)CC(=O)/C=C/c2ccc(N(C)C)c3ccccc23)cc1O [CU168, (1E,6E)-1-(4-dimethylaminonaphthalen-1-yl)-7-(3-hydroxy-4-methoxyphenyl)hepta-1,6-diene-3,5-dione]	146 to 150 °C
COc1c(O)cccc1/C=C/C(=O)CC(=O)/C=C/c1ccc(O)cc1 [CU174, (1E,6E)-1-(4-hydroxyphenyl)-7-(3-hydroxy-2-methoxyphenyl)hepta-1,6-diene-3,5-dione]	165 to 169 °C
COc1ccc(/C=C/C(=O)CC(=O)/C=C/c2c(O)cccc2OC)cc1O [CU280, (1E,6E)-1-(2-hydroxy-6-methoxyphenyl)-7-(3-hydroxy-4-methoxyphenyl)hepta-1,6-diene-3,5-dione]	181 to 185 °C
CSc1ccccc1/C=C/C(=O)CC(=O)/C=C/c1ccc(O)cc1 [CU484, (1E,6E)-1-(4-hydroxyphenyl)-7-[2-(methylthio)phenyl]hepta-1,6-diene-3,5-dione]	157 to 160 °C
CCN(CC)c1ccc(/C=C/C(=O)CC(=O)/C=C/c2ccc(OC)c(O)c2)c(OCc2ccccc2)c1 [CU438, (1E,6E)-1-(2-benzyloxy-4-diethylaminophenyl)-7-(3-hydroxy-4-methoxyphenyl)hepta-1,6-diene-3,5-dione]	72 to 77 °C
COc1ccc(/C=C/C(=O)CC(=O)/C=C/c2ccc(N(C)C)cc2OC)cc1O [CU155, (1E,6E)-1-(4-dimethylamino-2-methoxyphenyl)-7-(3-hydroxy-4-methoxyphenyl)hepta-1,6-diene-3,5-dione]	108 to 113 °C
